According to patent publication US5760036A, “Aminediol protease inhibitors” (E. R. Squibb & Sons, Inc., priority 1995, dated 1998):
Where a name gives a salt, the structure may show the parent alone. Read-outs that look alike come from different tables or passages of the source.

Legend:
[1] = test system: RF strain of HIV (CEM-SS cells); assay: Cell Culture Anti-HIV Activity (cell viability, formazan); type: cell-based; details: Human immunodeficiency virus 1, CEM-SS, 144 h, CEM-SS cells, RF strain of HIV, multiplicity of infection 0.04, 6 days at 37° C., 450 nm; read-out: HIV (CEM Cells) IC50
In short: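 CEM-SS cells (5000/well) infected with HIV RF at MOI 0.04, exposed to half-log serial compound dilutions, incubated 6 days at 37° C. Viability read by tetrazolium reduction to formazan, absorbance 450 nm. IC50 is the concentration raising formazan in infected cells to 50% of uninfected, drug-free cells.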

[2] = target: T1, HIV protease (Human immunodeficiency virus type 1 group M subtype B, UniProt P04585); assay: HIV Protease Assay; type: biochemical
T1 construct: and purified protease
In short: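 Purified protease cleaved 450 μM octapeptide substrate in 50 mM sodium acetate pH 5.5 with 100 μg/ml BSA for 30 minutes at 37° C; product analyzed by reverse-phase HPLC at UV220 after H3PO4 quench. Inhibitors tested at final 10 μM with 4% DMSO.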

[3] = pH 5.5, 10 μM inhibitor, 4% DMSO, 450 μM substrate, pH 5.5, 30 minutes at 37° C., RP-HPLC, read-out: HIV Protease % Inhibition at 10 μM

Structure (SMILES)	inhibition at 10 µM [2, 3] [%]	inhibition at 10 µM ([2]; pH 5.5, read-out: HIV Protease % Inhibition at 10 μM) [%]	IC50 [1] [µM]
CC(C)(C)OC(=O)N[C@@H](C/C=C/c1ccc(OCC(=O)N2CCOCC2)cc1)[C@H](O)CNC[C@@H](O)[C@H](Cc1ccccc1)NC(=O)OC(C)(C)C [Compound 276, [1S-[1R*,2S*(2S*,3R*)]]-[3-[[3-[[(1,1-Dimethylethoxy)carbonyl]amino]-2-hydroxy-6-[4-[2-(4-morpholinyl)-2-oxoethoxy]phenyl]-5-hexenyl]amino]-2-hydroxy-1-(phenylmethyl)propyl]carbamic acid, 1,1-dimethylethyl ester]	97	–	0.13
CC(C)(C)OC(=O)N[C@@H](Cc1ccccc1)[C@H](O)CNC[C@@H](O)[C@H](Cc1ccccc1)NC(=O)[C@H](Cc1ccccc1)NC(=O)OCc1ccccc1 (relative stereo) [Compound 55, [1R*,2S*(2S*,3R*)]-N-[[3-[[(1,1-Dimethylethoxy)carbonyl]amino]-2-hydroxy-4-phenylbutyl]amino]-2-hydroxy-1-(phenylmethyl)propyl]-N^2-[(phenylmethoxy)carbonyl]-L-phenylalaninamide]	91	–	0.7
CC(C)[C@H](NC(=O)[C@@H](O)Cc1ccccc1)C(=O)N[C@@H](Cc1ccccc1)[C@H](O)CNC[C@@H](O)[C@H](Cc1ccccc1)NC(=O)OC(C)(C)C [Compound 77, [S-[1R*,2S*(2S*,3R*,N^2 R*]]-N-[3-[[3-[[(1,-Dimethylethoxy)carbonyl]amino]-2-hydroxy-4-phenylbutyl]amino]-2-hydroxy-(phenyyl-methyl)propyl]N^2-(2-hydroxy-1-oxo-3-phenyl-propyl)-L-valinamide]	99	–	0.2
CC(C)[C@H](NC(=O)OCc1nc2ccccc2[nH]1)C(=O)N[C@@H](Cc1ccccc1)[C@H](O)CNC[C@@H](O)[C@H](Cc1ccccc1)NC(=O)OC(C)(C)C [Compound 93, [S-[1R*,2S*(2S*,3R*)[[-N-[3-[[3-[[(1,1-Dimethylethoxy)carbonyl]amino]-2-hydroxy-4-phenylbutyl]amino]-2-hydroxy-1-(phenylmethyl)propyl]-N2 -]-(1H-benzimidazol-2-ylmethoxy)carbonyl]-L-valinamide]	100	–	0.18
CC(C)[C@H](NC(=O)OCc1ccccc1)C(=O)N(C)[C@@H](Cc1ccccc1)[C@H](O)CNC[C@@H](O)[C@H](Cc1ccccc1)NC(=O)OC(C)(C)C [Compound 134, [S-[1R*,2S*(2S*,3R*)]]-N-[3-[[3-[[(1,1-Dimethylethoxy)carbonyl]amino]-2-hydroxy-4-phenylbutyl]amino]-2-hydroxy-1-(phenylmethyl)-propyl]-N-methyl-N^2-[(phenylmethoxy)carbonyl]-L-valinamide]	87	–	> 5
CC(C)[C@H](NC(=O)CC(N)c1ccccc1)C(=O)N[C@@H](Cc1ccccc1)[C@H](O)CNC[C@@H](O)[C@H](Cc1ccccc1)NC(=O)OC(C)(C)C (stereo partly drawn) [Compound 86, [S-[1R*,2S*(2S*,3R*)]-N^2 (3-Amino-1-oxo-3-phenylpropyl)-N-[3-[[3-[[(1,1-dimethylethoxy)carbonyl]amino]-2-hydroxy-4-phenylbutyl]amino-[-2-hydroxy-1-(-phenylmethyl)propyl]-L-valinamide, fumarate (2:3) salt]	78	–	1.8
COCCCCOc1ccc(C[C@H](NC(=O)OC(C)(C)C)[C@H](O)CNC[C@@H](O)[C@H](Cc2ccccc2)NC(=O)OC(C)(C)C)cc1 [Compound 300, [1S-[1R*,2S*(2S*,3R*)]]-[3-[[3-[[(1,1-Dimethylethoxy)-carbonyl]amino]-2-hydroxy-4-[4-(4-methoxybutoxy)phenyl]butyl]amino]-2-hydroxy-1-(phenylmethyl)propyl]carbamic acid, 1,1-dimethylethyl ester]	99	–	0.03

More lines, main results first:

inhibition at 10 µM [2, 3] [%]	inhibition at 10 µM ([2]; pH 5.5, read-out: HIV Protease % Inhibition at 10 μM) [%]	Structure (SMILES)	IC50 [1] [µM]
100	–	CC(C)(C)OC(=O)N[C@@H](Cc1ccccc1)[C@H](O)CNC[C@@H](O)[C@H](Cc1cccc(OCc2ccccc2)c1)NC(=O)OC(C)(C)C [Compound 28, [1S-[1R*,2S*(2S*,3R*)]]-[3-[[3-[[(1,1-Dimethylethoxy)-carbonyl]amino]-2-hydroxy-4-phenylbutyl]amino]-2-hydroxy-1-[[3-(phenylmethoxy)phenyl]methyl]propyl]carbamic acid, 1,1-dimethylethyl ester]	0.09
98	–	CC(C)(C)OC(=O)N[C@@H](Cc1ccccc1)[C@H](O)CNC[C@@H](O)[C@H](Cc1c[nH]c2ccccc12)NC(=O)OC(C)(C)C [Compound 23, [1S-[1R*,2S*(2S*,3R*)]]-[3-[[3-[[(1,1-Dimethylethoxy)carbonyl]amino]-2-hydroxy-4-(1H-indol-3-ylmethyl)butyl]amino]-2-hydroxy-1-(phenylmethyl)propyl]carbamic acid, 1,1-dimethylethyl ester]	0.45
99	–	CC(C)(C)OC(=O)N[C@@H](Cc1ccccc1)[C@H](O)CNC[C@@H](O)[C@H](Cc1ccccc1)NC(=O)OC(C)(C)CF [Compound 252, [1S-(1R*,2S*)]-[Iminobis[2-hydroxy-1-(phenylmethyl)-3,1-propanediyl]]biscarbamic acid 2-fluoro-1,1-dimethylethyl 1,1-dimethylethyl ester]	0.06
100	–	CC(C)(C)OC(=O)N[C@@H](Cc1ccccc1)[C@H](O)CNC[C@@H](O)[C@H](Cc1ccccc1)NC(=O)OC(C)(C)C [Compound 2, [1S-[1R*,2S*(2S*,3R*)]]-[3-[[3-[[(1,1-Dimethylethoxy)carbonyl]amino]-2-hydroxy-4-phenylbutyl]amino]-2-hydroxy-1-(phenylmethyl)propyl]carbamic acid, 1,1-dimethylethyl ester]	0.09
–	99	CC(C)(C)OC(=O)N[C@@H](Cc1ccccc1)[C@H](O)CNC[C@@H](O)[C@H](Cc1ccc(OCC(O)c2cccnc2)cc1)NC(=O)OC(C)(C)C (single isomer, unassigned; isomer a) [Compound 355, [1S-[1R*,2S* (2S*,3R*)]]-[3-[[3-[[(1,1-Dimethylethoxy)carbonyl]amino]-2-hydroxy-4-[4-[2-hydroxy-2-(3-pyridinyl)ethoxy]phenyl]-butyl]amino]-2-hydroxy-1-(phenylmethyl)-propyl]-carbamic acid, 1,1-dimethylethyl ester, Isomer A]	0.07
99	–	CNC(=O)N(C)[C@H](C(=O)N[C@@H](Cc1ccccc1)[C@H](O)CNC[C@@H](O)[C@H](Cc1ccccc1)NC(=O)OC(C)(C)C)C(C)(C)C (relative stereo) [Compound 342, [1R*,2S* (2S*, 3R*)]-N-[3-[[3-[[(1,1-Dimethylethoxy)carbonyl]amino]-2-hydroxy-4-phenylbutyl]amino]-2-hydroxy-1-(phenylmethyl)propyl]-N^2-[(methylamino)carbonyl]-N^2-3-dimethyl-L-valinamide]	0.07
64	–	CC(C)(C)OC(=O)N[C@@H](Cc1ccccc1)[C@H](O)CNC[C@@H](O)[C@H](Cc1ccccc1)NC(=O)C(OCCCc1nc2ccccc2[nH]1)C(C)(C)C (stereo partly drawn) [Compound 238, [1S-[1R*,2S*(2S*,3R*)]]-[3-[[3-[[2-[3-(2-Benzimidazolyl)propoxy]-3,3-dimethyl-1-oxobutyl]amino]-2-hydroxy-4-phenylbutyl]amino]-2-hydroxy-1-(phenylmethyl)propyl]carbamic acid, 1,1-dimethylethyl ester]	2.3
